Test results as given in US11365185B2, “Lysophosphatidic acid receptor 1 (LPAR1) inhibitor compounds” (Eli Lilly and Company, priority 2017, dated 2022).
Structures can show the parent of a compound that is named as a salt.

Legend:
[1] = test system: Human hepatic stellate cell line LX-2; experiment: Calcium Influx of Human Hepatic Stellate Cells (LX-2); assay type: cell-based; settings: LX-2 cells, LPA-stimulated calcium influx
Method: Calcium Influx of Human Hepatic Stellate Cells (LX-2)
Human hepatic stellate cell line LX-2 is purchased from EMD Millpore. LX-2 cells are seeded at 20,000-40,000 cells per well in a 96-well poly-D-lysine coated plate one day before the assay. Prior to the assay, the cells are washed once with assay buffer (HBSS containing 20 mM HEPES and 0.2% BSA) and then incubated in 50 μl of assay buffer for 60 minutes. Then 50 μl of a calcium indicator dye (Fluo-4 NW, Molecular Probes) are added to each well and incubation is continued for 30 minutes at 37° C. and then 30 minutes at room temperature. 50 μl of test compounds in 4% DMSO are added to the cells and incubation is continued at room temperature for 40 minutes. Cells are stimulated by the addition of 50 μl of 128 nM LPA and intracellular calcium is measured using the FLIPR TETRA (Molecular Devices). IC50 values are determined using “Genedata Screener” analysis tool.

[2] = target: T1, LPAR1 (Homo sapiens (Human), UniProt Q92633); experiment: LPAR1 Calcium Flux Assay; assay type: cell-based; settings: U937 cells overexpressing human LPAR1, LPA-stimulated calcium, FLIPR
Method: LPAR1 Calcium Flux Assays
(§1) A cDNA encoding the human LPAR1 receptor is synthesized and cloned into pDNA3 expression plasmid. The plasmid is transfected in U937 cells using Lipofectamine 2000 (Invitrogen Corp., USA). Clones stably expressing human LPAR1 are selected using puromycin and identified as cells that show Ca-influx in response to LPA.
U937 cells overexpressing human LPAR1 are seeded at 100,000 cells per well in a 96-well fibronectin (10 ug/ml) coated plate in 60 μl of assay buffer (HBSS containing 20 mM HEPES and 0.2% BSA) and then incubated for 60 minutes. Then 50 μl of a calcium indicator dye (Fluo-4 NW, Molecular Probes) are added to each well and incubation continued for 30 minutes at 37° C. and then 30 minutes at room temperature. 50 μl of test compounds in 4% DMSO are added to the cells and incubation continued at room temperature for 40 minutes. Cells are the stimulated by the addition of 50 μl of 128 nM LPA and intracellular calcium is measured using the FLIPR TETRA (Molecular Devices). IC50 values are determined using “Genedata Screener” analysis tool.
Target sequence in this assay (Q92633 whole entry): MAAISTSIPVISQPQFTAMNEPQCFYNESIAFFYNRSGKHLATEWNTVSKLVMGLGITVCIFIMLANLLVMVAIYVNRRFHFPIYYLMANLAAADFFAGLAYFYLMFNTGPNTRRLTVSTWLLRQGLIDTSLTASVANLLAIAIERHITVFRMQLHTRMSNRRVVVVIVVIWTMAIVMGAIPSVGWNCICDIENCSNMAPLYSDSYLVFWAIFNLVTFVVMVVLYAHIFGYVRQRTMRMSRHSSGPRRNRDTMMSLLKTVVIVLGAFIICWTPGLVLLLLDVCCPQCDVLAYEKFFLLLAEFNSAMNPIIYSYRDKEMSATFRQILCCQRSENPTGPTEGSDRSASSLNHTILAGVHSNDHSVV

[3] = target: human LPAR3 (Homo sapiens (Human), UniProt Q9UBY5); experiment: LPAR3 Calcium Flux Assay; assay type: cell-based; settings: U2OS cells overexpressing human LPAR3, LPA-stimulated calcium, FLIPR
human LPAR3, sequence (Q9UBY5 whole entry): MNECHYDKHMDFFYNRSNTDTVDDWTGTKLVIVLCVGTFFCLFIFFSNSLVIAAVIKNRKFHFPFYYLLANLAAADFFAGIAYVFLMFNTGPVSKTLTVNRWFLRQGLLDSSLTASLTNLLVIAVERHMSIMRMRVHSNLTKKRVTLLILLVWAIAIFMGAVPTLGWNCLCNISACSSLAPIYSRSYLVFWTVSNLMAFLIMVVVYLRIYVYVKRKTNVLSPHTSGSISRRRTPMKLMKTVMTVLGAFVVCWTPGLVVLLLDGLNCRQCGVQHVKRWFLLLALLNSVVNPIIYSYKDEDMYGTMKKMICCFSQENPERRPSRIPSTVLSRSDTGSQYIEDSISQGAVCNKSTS
Method: LPAR3 Calcium Flux Assays
as §1, with “LPAR3” for “LPAR1”, “U2OS” for “U937”, “neomycin” for “puromycin”
U2OS cells overexpressing human LPAR3 are seeded at 20,000-40,000 cells per well in a 96-well poly-D-lysine coated plate one day before the assay. Prior to the assay, the cells are washed once with assay buffer (HBSS containing 20 mM HEPES and 0.2% BSA) and then incubated in 50 μl of assay buffer for 60 minutes. Then 50 μl of a calcium indicator dye (Fluo-4 NW, Molecular Probes) are added to each well and incubation is continued for 30 minutes at 37° C. and then 30 minutes at room temperature. 50 μl of test compounds in 4% DMSO are added to the cells and incubation continued at room temperature for 40 minutes. Cells are stimulated by the addition of 50 μl of 128 nM LPA and intracellular calcium is measured using the FLIPR TETRA (Molecular Devices). IC50 values are determined using “Genedata Screener” analysis tool.

[4] = target: T1, LPAR1; experiment: LPAR1 Cytokine Release Assay (IL-6, MG63 cells); assay type: cell-based; settings: LPA-stimulated IL-6 levels, 24 hours, ELISA
Method: LPAR1 Cytokine Release Assay
Human MG63 cells are seeded at 20,000 per well in 96-well plates and incubated in MEM medium. One day later, the cell culture medium is removed and 60 μl of test compounds are added to each well. 30 minutes later, 60 μl of LPA (10 μM) are added to each well. 24 hours later, 50 μl of supernatant from each well are taken and IL-6 levels are measure by using ELISA kit (R&D Systems, Cat. No. D6050). IC50 values are determined using “Genedata Screener” analysis tool.
Target sequence in this assay (Q92633 whole entry): as the sequence (Q92633 whole entry) above

[5] = target: T1, LPAR1; experiment: LPAR1 Membrane Binding Assay; settings: membrane containing LPAR1, radio labeled ligand, SPA
Method: LPAR1 Membrane Binding Assay
The ability of a compound to inhibit binding of a ligand (1-(4′-(4-(((benzyloxy)carbonyl)amino)-3-methylisoxazol-5-yl)-[1,1′-biphenyl]-4-yl)cyclopropane-1-carboxylic acid) to LPAR1 is assessed via a membrane binding assay. Membrane containing LPAR1 was purchased from Cerep (Cat. No. 290312RB). Prior to the assay, membrane is thawed and homogenized for 15 seconds. 50 μl of test compounds and 50 μl of radio labeled ligand are added to the 96-well plates and then 50 of μl membrane (50-400 ug/ml) are added. Next, 50 μl of SPA PVT WGA beads are added (1-5 mg/ml) and the plates are sealed and incubated at room temperate for 5 minutes. Radio activity is measured by Beta Counter and IC50 values are determined using “Genedata Screener” analysis tool.
Target sequence in this assay (Q92633 whole entry, species assumed): as the sequence (Q92633 whole entry) above

[6] = test system: Male C57BL/6J mice; experiment: Mouse Intravenous LPA-Induced Histamine and Eicosanoids Release; assay type: in vivo; settings: 10 mg/kg orally 2 hours before intravenous LPA; plasma
Method: Mouse Intravenous LPA-Induced Histamine and Eicosanoids Release
A mouse intravenous LPA-induced histamine and eicosanoids release model is utilized to determine the in vivo potency of the compounds of the present invention. Male C57BL/6J mice weighing 20-25 grams are given free access to standard mouse chow and water. LPA is dissolved in 0.1% fatty acid-free bovine serum albumin to generate solution at 2 mg/mL. Test compounds are formulated in 0.5% methyl cellulose plus 0.25% Tween 80 to generate required concentrations one day before the experiment and stored in a refrigerator until use. Animals are dosed orally with test compounds at 10 ml/kg 2 hours before the intravenous LPA dosing (300 ug per mouse) with 30 gauge needles through tail vain. Two hours after LPA dosing the animals are euthanized by CO2 suffocate. Blood will be collected by cardiac puncture. Blood samples are kept on ice for more than 5 minutes and centrifuged at 4000 rpm for 10 minutes at 4° C. to generate supernatant plasma. The plasma histamine, methylimidazol acetic acid and eicosanoids levels are measured by LC/MS.

[7] = Rodent Pharmacokinetics - Rat PK; assay type: in vivo, male Sprague-Dawley rats; settings: male, Sprague-Dawley, plasma
Method: (§2) The pharmacokinetics of compounds are determined in male Sprague-Dawley rats or C57 mice. The rats are administered a single 1 mg/kg intravenous (IV) and 10 mg/kg oral gavage (PO) dose. The vehicles are 20% Captisol w/v in 25 mM NaPO4 buffer, pH8 and 1% hydroxyethylcellulose/0.25% polysorbate 80 and 0.05% antifoam 1510-US in distilled water for the intravenous and oral dose, respectively. Blood samples are collected at predose (PO only), 0.08 (IV only), 0.25, 0.5, 1, 2, 4, 8, 12 and 24 h after initiation of compound administration. Blood samples are centrifuged to obtain plasma. The plasma samples are analyzed by LC-MS/MS to determine compound concentrations.

[8] = Rodent Pharmacokinetics - Mouse PK; assay type: in vivo, C57 mice; settings: C57, plasma; for AUC / bioavailability: 10 mg/kg; for AUC: PO; for clearance / Vd: intravenous; for Vd: read-out: Vdss; for bioavailability: oral
Method: as §2

Row | Structure (SMILES) | IC50 [1] [nM] | IC50 [2] [nM] | IC50 [3] [nM] | IC50 [4] [nM] | Ki [5] [nM] | AUC ([7]; 10 mg/kg, PO) [µM·h] | clearance ([7]; intravenous, 1 mg/kg) [mL/min/kg] | Vd ([7]; intravenous, 1 mg/kg, read-out: Vdss) [L/kg] | bioavailability ([7]; oral, 10 mg/kg) [%] | AUC [8] [µM·h] | clearance [8] [mL/min/kg] | Vd [8] [L/kg] | bioavailability [8] [%] | % of inhibition, 9,10-cis epoxide of linoleic acid [6] [%] | % of inhibition, 12-hydroxyeicosatetraenoic acid [6] [%] | % of inhibition, methylimidazoleacetic acid [6] [%]
1 | CC(C)Cc1cncc(Nc2c(-c3ccc(-c4ccc(C5(C(=O)O)CC5)cc4)cc3)cnn2C)n1 [Example 17, 1-[4-[4-[5-[(6-isobutylpyrazin-2-yl)amino]-1-methyl-pyrazol-4-yl]phenyl]phenyl]cyclopropanecarboxylic Acid] | 23.1 | 54.7 | 1830 | 5.81 | – | – | – | – | – | – | – | – | – | – | – | –
2 | Cn1ncc(-c2ccc(-c3ccc(C4(C(=O)O)CC4)cc3)cn2)c1Nc1cncc(C(F)(F)F)n1 [Example 21, 1-[4-[6-[1-methyl-5-[[6-(trifluoromethyl)pyrazin-2-yl]amino]pyrazol-4-yl]-3-pyridyl]phenyl]cyclopropanecarboxylic Acid] | 14.1 | 36.3 | 1610 | 8.81 | 27.6 | – | – | – | – | 16.3 | 4.99 | 1.46 | 24.8 | – | – | –
3 | Cc1cc(C2(C(=O)O)CC2)ccc1-c1ccc(-c2cnn(C)c2Nc2cncc(C(C)C)n2)nc1 [Example 22, 1-[4-[6-[5-[(6-isopropylpyrazin-2-yl)amino]-1-methyl-pyrazol-4-yl]-3-pyridyl]-3-methyl-phenyl]cyclopropanecarboxylic Acid; Hydrochloride] | 10.4 | 30.9 | 1170 | 11.2 | – | – | – | – | – | – | – | – | – | – | – | –
4 | CC(C)c1cncc(Nc2c(-c3ccc(-c4ccc(C5(C(=O)O)CC5)nc4)cn3)cnn2C)n1 [Example 23, Ammonia; 1-[5-[6-[5-[(6-isopropylpyrazin-2-yl)amino]-1-methyl-pyrazol-4-yl]-3-pyridyl]-2-pyridyl]cyclopropanecarboxylic Acid] | 21.5 | 111 | > 10000 | 183 | – | – | – | – | – | – | – | – | – | – | – | –
5 | Cn1ncc(-c2ccc(-c3ccc(C4(C(=O)O)CC4)cc3)cc2)c1Nc1cncc(C2CC2)n1 [Example 25, Ammonium 1-[4-[4-[5-[(6-cyclopropylpyrazin-2-yl)amino]-1-methyl-pyrazol-4-yl]phenyl]phenyl]cyclopropanecarboxylate] | 24.2 | 52.9 | > 10000 | – | 30.8 | – | – | – | – | – | – | – | – | – | – | –
6 | CC(C)c1cncc(Nc2c(-c3ccc(-c4ccc(C5(C(=O)O)CC5)cc4)cc3)cnn2C)n1 [Example 26, 1-[4-[4-[5-[(6-isopropylpyrazin-2-yl)amino]-1-methyl-pyrazol-4-yl]phenyl]phenyl]cyclopropanecarboxylic Acid] | 13.1 | 23.6 | > 10000 | 4.79 | 18.8 | – | – | – | – | 9.06 | 2 | 2 | 30 | – | – | –

Further lines, with some results ahead:

Row | IC50 [1] [nM] | IC50 [2] [nM] | IC50 [3] [nM] | IC50 [4] [nM] | Ki [5] [nM] | AUC ([7]; 10 mg/kg, PO) [µM·h] | clearance ([7]; intravenous, 1 mg/kg) [mL/min/kg] | Vd ([7]; intravenous, 1 mg/kg, read-out: Vdss) [L/kg] | bioavailability ([7]; oral, 10 mg/kg) [%] | AUC [8] [µM·h] | clearance [8] [mL/min/kg] | Vd [8] [L/kg] | bioavailability [8] [%] | Structure (SMILES) | % of inhibition, 9,10-cis epoxide of linoleic acid [6] [%] | % of inhibition, 12-hydroxyeicosatetraenoic acid [6] [%] | % of inhibition, methylimidazoleacetic acid [6] [%]
7 | 7.94 | 24 | 2360 | 6.67 | 24.5 | – | – | – | – | – | – | – | – | CC(C)c1cncc(Nc2c(-c3ncc(-c4ccc(C5(C(=O)O)CC5)cc4)cn3)cnn2C)n1 [Example 18, 1-[4-[2-[5-[(6-isopropylpyrazin-2-yl)amino]-1-methyl-pyrazol-4-yl]pyrimidin-5-yl]phenyl]cyclopropanecarboxylic acid] | – | – | –
8 | 12 | 29.3 | 341 | 3.95 | 12.7 | 70.9 | 2.94 | 0.721 | 57.5 | – | – | – | – | CC(C)Oc1cncc(Nc2c(-c3ccc(-c4ccc(C5(C(=O)O)CC5)cc4)cn3)cnn2C)n1.Cl [Example 20, 1-[4-[6-[5-[(6-isopropoxypyrazin-2-yl)amino]-1-methyl-pyrazol-4-yl]-3-pyridyl]phenyl]cyclopropanecarboxylic Acid; Hydrochloride] | 83.4 ± 6.4 | 68.8 ± 6.0 | 103.5 ± 0.6
9 | 15.3 | 48 | 2760 | – | 46.2 | – | – | – | – | – | – | – | – | CC(C)c1cncc(Nc2c(-c3ccc(-c4ccc(C5(C(=O)O)CC5)cn4)cn3)cnn2C)n1 [Example 24, 1-[6-[6-[5-[(6-isopropylpyrazin-2-yl)amino]-1-methyl-pyrazol-4-yl]-3-pyridyl]-3-pyridyl]cyclopropanecarboxylic Acid; Dihydrochloride] | – | – | –
